The values that follow are results of earlier work, collected in patent publication US20160287532A1 (SignPath Pharma Inc., priority 2015, published 2016).

Series [1] concerns IL-6. The following applies: IVD cells pre-treated with IL-1β.
The subject of series [2] is IL-8. The following applies: IVD cells pre-treated with IL-1β.
Series [3] deals with MMP-1. As to conditions: IVD cells pre-treated with IL-1β.
Series [4] has as its system MMP-3. As to conditions: IVD cells pre-treated with IL-1β.
Series [5] concerns MMP-13. As to conditions: IVD cells pre-treated with IL-1β.
The subject of series [6] is MMP-1. The following applies: treated IVD samples.
For series [7], the system named is MMP-3. As to conditions: after treatment; decreased from 0.9 ng/mg tissue.
For series [8], the system named is IL-6. The following applies: 10 μM EGCG, IL-1β stimulated.
In series [9] the test system is IL-8. The following applies: 10 μM EGCG, IL-1β stimulated.
The subject of series [10] is COX-2. The following applies: 10 μM EGCG, IL-1β stimulated.
The test system of series [11] is MMP-1. As to conditions: 10 μM EGCG, IL-1β stimulated.
Series [12] relates to MMP-3. As to conditions: 10 μM EGCG, IL-1β stimulated.
For series [13], the system named is MMP-13. As to conditions: 10 μM EGCG, IL-1β stimulated.

Regarding `Oc1ccc(C=Cc2cc(O)cc(O)c2)cc1` [Resveratrol, resveratrol], the “levels of IL-6” value in [1] was “reduced”. The “levels of IL-8” value in [2] was “reduced”. Further, in [3], the “levels of MMP-1” value is given as “reduced”. The “levels of MMP-3” value in series [4] was “reduced”. In series [5], the “levels of MMP-13” value is listed as “reduced”.
Take “IL-1Ra: recombinant interleukin-1 receptor antagonist”: in [6], the “effect on MMP-1 concentration” value is “no effect”. In series [7], the “concentration of total MMP-3 activity” value was 0.35 ng/mg tissue.
As for epigallocatechin 3-gallate [EGCG], the “expression of IL-6” value in [8] is given as “inhibited”. Further, the “expression of IL-8” value in [9] was “inhibited”. Further, the “expression of COX-2” value in series [10] was “inhibited”. For the same compound, the “expression of MMP-1” value in series [11] was “inhibited”. The “expression of MMP-3” value in series [12] was “inhibited”. In series [13], the “expression of MMP-13” value is reported as “inhibited”.
